In US20140221301A1, “COMBINATION TREATMENT FOR CANCER” (priority 2011, published 2014):

Legend:
TEX cells = test: ROS generation (DCF-DA, DHE) in TEX cells; assay type: cell-based, human; conditions: time-points up to 24 hours
Procedure: FIG. 4. […] (A) Cells from TEX, OCI-AML2 and two primary AML patients were treated with increasing concentrations (2.5 μM and 5 μM) of tigecycline for 36 and 48 hours of tigecycline. Total proteins were extracted and analyzed by western blotting for Cox-1, Cox-2, Cox-4, grp78, XIAP, actin and tubulin. (B) TEX and AML patient cells were treated with increasing concentrations (2.5 μM and 5 μM) of tigecycline. Cox-1, Cox-2, and Cox-4 mRNA expression relative 18S was determined by quantitative RT-PCR. Data is shown as mean±SD. (C) TEX cells were treated with increasing concentrations of tigecycline and chloramphenicol (CAP) for 72 hours. Complex I, II and IV enzyme activity relative to citrate synthase activity was determined as described in materials and methods. (D) Cells from TEX, primary AML patients, and normal donors were treated with increasing concentrations of tigecycline. Mitochondrial membrane potential (ΔΨ) was determined by staining cells with JC-1 dye, and flow cytometry analysis (Red/Green ratio). Reactive oxygen species generation (ROS) was determined by staining with h2-DCFDA and Dihydroethidium (DHE).
A byproduct of the mitochondrial enzyme activities of the electron transport chain is the generation of reactive oxygen species (ROS). […] Therefore, the role of tigecycline on ROS generation in leukemia cells by analyzing hydrogen peroxide ions (H2O2) using a dichlorofluorescein dye (DCF-DA), and superoxide anions using dihydroethidium (DHE) was examined.

leukemia cell lines = test: Cell growth and viability, MTS assay, leukemia cell lines; assay type: cell-based; conditions: 72 hours, tested leukemia cell lines
Procedure: FIG. 1. […] (A) TEX and (B) M9-ENL1 cells were plated in 96-well plates and drugs were added to the wells (5 μL per well) for final concentrations of 10 μM (shown) and 1 μM. Cell growth and viability was measured at 48 hours (M9-ENL-1) and 72 hours (TEX) by MTS assay. Cell viability is shown for each compound as a percent of cells treated with DMSO alone. (C) Leukemia, (D) myeloma, and (E) solid tumor cell lines were seeded in 96-well plates and then treated with increasing concentrations of tigecycline. Cell growth and viability was measured at 72 hours by MTS assay. Cell viability is expressed as mean percentage plus or minus SD (n=3) relative to vehicle-treated cells. […] Cell viability was measured at 72 hours by MTS assay. Cell viability is expressed as mean percentage plus or minus SD (n=3) relative to vehicle-treated cells.
Human leukemia (OCI-AML2, HL60, U937) cell lines were maintained in RPMI 1640 medium. Myeloma (LP-1, KMS11, 8226, JJN3, OP-M2) cell lines were maintained in Iscove's media. […]
Cell growth and viability was assessed by the MTS assay (Promega, Madison, Wis.) according to the manufacturer's instructions. Apoptosis and cell death was measured by Annexin V-fluroscein isothiocyanate (FITC; Biovision Research Products, Mountain View, Calif.), propidium iodide staining and flow cytometry according to the manufacturer's instructions and as previously described^30.

complex II = test: Respiratory chain enzyme activity relative to citrate synthase, complex II; assay type: cell-based, human; conditions: TEX cells, 2.5 μM and 5 μM, 72 hours
Procedure: FIG. 4. Tigecycline decreases mitochondrial Cox-1 protein levels in TEX cells. (A) Cells from TEX, OCI-AML2 and two primary AML patients were treated with increasing concentrations (2.5 μM and 5 μM) of tigecycline for 36 and 48 hours of tigecycline. Total proteins were extracted and analyzed by western blotting for Cox-1, Cox-2, Cox-4, grp78, XIAP, actin and tubulin. (B) TEX and AML patient cells were treated with increasing concentrations (2.5 μM and 5 μM) of tigecycline. Cox-1, Cox-2, and Cox-4 mRNA expression relative 18S was determined by quantitative RT-PCR. Data is shown as mean±SD. (C) TEX cells were treated with increasing concentrations of tigecycline and chloramphenicol (CAP) for 72 hours. Complex I, II and IV enzyme activity relative to citrate synthase activity was determined as described in materials and methods. […] Mitochondrial membrane potential (ΔΨ) was determined by staining cells with JC-1 dye, and flow cytometry analysis (Red/Green ratio). Reactive oxygen species generation (ROS) was determined by staining with h2-DCFDA and Dihydroethidium (DHE).
The effect of tigecycline treatment on enzyme activity of the respiratory chain complexes relative to the mitochondrial non-respiratory chain enzyme citrate synthase was examined. TEX leukemia cells were treated with tigecycline for […] and then respiratory chain enzyme relative to citrate synthase activity was analyzed. […]

[1] = intravenous doses of 300 mg; cited from earlier work
[2] = rat, in vivo, 30 mg/kg/day; cited from earlier work

CN(C)c1cc(NC(=O)CNC(C)(C)C)c(O)c2c1C[C@H]1C[C@H]3[C@H](N(C)C)C(O)=C(C(N)=O)C(=O)[C@@]3(O)C(O)=C1C2=O [tigecycline]
ROS generation (TEX cells): no observed increase | IC50 (leukemia cell lines): 5 to 8 µM | complex II activity relative to citrate synthase (complex II): less affected | tolerability [1]: well tolerated save for mild nausea | toxicology findings [2]: reversible anemia, thrombocytopenia, and leucopenia with a hypocellular bone marrow
